Assay results as given in patent US10563263B2, “Genetic polymorphisms associated with statin response and cardiovascular diseases, methods of detection and uses thereof” (CELERA CORPORATION, priority 2010, dated 2020).

Tested on: CHD
Assay: Meta-analysis of CARE and WOSCOPS combined, synergy index, CHD endpoint
Assay type: in vivo, human
Description: Tables 4-5 provide meta-analyses of CARE and WOSCOPS combined (2nd section of each table) for two endpoints (CHD and CVD) and three genetic models (dominant, recessive, and additive), as well as logistic regression analyses of CARE (3rd section of each table) and WOSCOPS (4th section of each table) individually.
Tables 12 and 17 provide results of meta-analysis of the CARE and WOSCOPS sample sets combined by direct genotyping and by imputing genotypes.
“P” indicates the p-value, and “P(R)” (or “P.R.”) indicates the p-value random effect. Both of these are p-values corresponding to a statistical test of whether the combined synergy index is equal to one but use different assumptions to derive the p-value. “P” is calculated using a fixed effects model, and “P(R)” is calculated using a random effects model.
“OR” indicates the odds ratio (synergy index) calculated from a fixed effects model, and “OR(R)” (or “OR.R.”) indicates the odds ratio (synergy index) calculated from a random effects model.

[1] = rs10105871 allele C DOMINANT Imputed
[2] = rs10116807 allele A GENOTYPIC Imputed
[3] = rs11178575 allele C GENOTYPIC Imputed
[4] = rs11178575 allele C RECESSIVE Imputed
[5] = rs11178577 allele T GENOTYPIC Imputed
[6] = rs11178577 allele T RECESSIVE Imputed
[7] = rs11178583 allele A DOMINANT Imputed
[8] = rs11178589 allele T DOMINANT Imputed
[9] = rs11178594 allele C DOMINANT Imputed
[10] = rs11178602 allele T DOMINANT Imputed
[11] = rs11178648 allele T DOMINANT Imputed
[12] = rs11198877 allele T DOMINANT Imputed
[13] = rs11198942 allele T DOMINANT Imputed
[14] = rs11221075 allele A ADDITIVE Imputed
[15] = rs11242020 allele T DOMINANT Imputed
[16] = rs11242021 allele T DOMINANT Imputed
[17] = rs11242022 allele T DOMINANT Imputed
[18] = rs11242023 allele T DOMINANT Imputed
[19] = rs11576627 allele T ADDITIVE Imputed
[20] = rs11576627 allele T DOMINANT Imputed
[21] = rs11602189 allele A DOMINANT Imputed
[22] = rs11605163 allele A DOMINANT Imputed
[23] = rs11615214 allele G ADDITIVE Imputed
[24] = rs11615214 allele G GENOTYPIC Imputed
[25] = rs11642394 allele C DOMINANT Imputed
[26] = rs11644943 allele A ADDITIVE Imputed
[27] = rs11656608 allele T DOMINANT Imputed
[28] = rs11661309 allele A ADDITIVE Imputed
[29] = rs11661309 allele A DOMINANT Imputed
[30] = rs11666131 allele A ADDITIVE Imputed
[31] = rs11743355 allele C ADDITIVE Imputed
[32] = rs11743355 allele C DOMINANT Imputed
[33] = rs11746806 allele T ADDITIVE Imputed
[34] = rs11746806 allele T DOMINANT Imputed
[35] = rs11746959 allele T ADDITIVE Imputed
[36] = rs11746959 allele T DOMINANT Imputed
[37] = rs11749272 allele T DOMINANT Imputed
[38] = rs11901899 allele A DOMINANT Imputed
[39] = rs11926319 allele G ADDITIVE Imputed
[40] = rs11926319 allele G DOMINANT Imputed
[41] = rs11956952 allele C DOMINANT Imputed
[42] = rs12025826 allele G DOMINANT Imputed
[43] = rs12153185 allele T DOMINANT Imputed
[44] = rs12182651 allele T ADDITIVE Imputed
[45] = rs12182651 allele T DOMINANT Imputed
[46] = rs12193568 allele G DOMINANT Imputed
[47] = rs12264914 allele C DOMINANT Imputed
[48] = rs12307767 allele C DOMINANT Imputed
[49] = rs12407412 allele C ADDITIVE Imputed
[50] = rs12407412 allele C DOMINANT Imputed
[51] = rs12420184 allele G DOMINANT Imputed
[52] = rs12422750 allele A DOMINANT Imputed
[53] = rs12446951 allele A ADDITIVE Imputed
[54] = rs12446951 allele A DOMINANT Imputed
[55] = rs12457400 allele G DOMINANT Imputed
[56] = rs12521291 allele G ADDITIVE Imputed
[57] = rs12526849 allele T ADDITIVE Imputed
[58] = rs12526849 allele T GENOTYPIC Imputed
[59] = rs12543110 allele G DOMINANT Imputed
[60] = rs12678600 allele A DOMINANT Imputed
[61] = rs12719415 allele T DOMINANT Imputed
[62] = rs12831292 allele G DOMINANT Imputed

## CC[C@H](C)C(=O)O[C@H]1C[C@H](O)C=C2C=C[C@H](C)[C@H](CC[C@@H](O)C[C@@H](O)CC(=O)O)[C@H]21 [Pravastatin, pravastatin]
rs10067895 allele A DOMINANT Imputed
  OR(R): 0.5759
rs10088505 allele A vs G (ref)
  Meta-analysis OR: 1.61
rs10088524, allele A1 G (non-ref), A2 A (ref), endpoint/model not given
  Meta-analysis OR: 1.57
rs10103297, allele A1 A (non-ref), A2 G (ref), endpoint/model not given
  Meta-analysis OR: 2.03
[1]
  OR: 1.6092
  OR(R): 1.6092
[2]
  OR: 3.0952
  OR(R): 3.0952
rs10120126 allele G vs A (ref)
  Meta-analysis OR: 0.51
rs10189905 allele C vs A (ref)
  Meta-analysis OR: 0.52
rs10500736 allele G vs A (ref)
  Meta-analysis OR: 0.57
rs10517923 allele A vs G (ref)
  Meta-analysis OR: 1.61
rs10814422 allele G vs A (ref)
  Meta-analysis OR: 0.57
rs10849442 allele A vs G (ref)
  Meta-analysis OR: 0.57
rs10875941, allele A1 G (non-ref), A2 A (ref), endpoint/model not given
  Meta-analysis OR: 0.63
rs10973013 allele A vs G (ref)
  Meta-analysis OR: 0.55
rs11076320 allele C vs A (ref)
  Meta-analysis OR: 0.65
rs11082492 allele A vs C (ref)
  Meta-analysis OR: 1.55
[3]
  OR: 1.8735
  OR(R): 1.8735
[4]
  OR: 1.8848
  OR(R): 1.8848
[5]
  OR: 1.87
  OR(R): 1.87
[6]
  OR: 1.8884
  OR(R): 1.8884
[7]
  OR: 0.5918
  OR(R): 0.5918
[8]
  OR: 0.6108
  OR(R): 0.6108
[9]
  OR: 0.5951
  OR(R): 0.5951
[10]
  OR: 0.5942
  OR(R): 0.5942
[11]
  OR: 0.576
  OR(R): 0.576
[12]
  OR: 1.6068
  OR(R): 1.5927
[13]
  OR: 1.6276
  OR(R): 1.6227
[14]
  OR: 0.6561
  OR(R): 0.6561
[15]
  OR: 0.5675
  OR(R): 0.5675
[16]
  OR: 0.5753
  OR(R): 0.5753
[17]
  OR: 0.5805
  OR(R): 0.5805
[18]
  OR: 0.5807
  OR(R): 0.5807
[19]
  OR: 1.6268
  OR(R): 1.6268
[20]
  OR: 1.7055
  OR(R): 1.7055
[21]
  OR: 0.6007
  OR(R): 0.6007
[22]
  OR: 2.1075
  OR(R): 2.1075
[23]
  OR: 0.6853
  OR(R): 0.6853
[24]
  OR: 0.4648
  OR(R): 0.4738
[25]
  OR: 1.4572
  OR(R): 1.4572
[26]
  OR: 1.4247
  OR(R): 1.4247
[27]
  OR: 0.6695
  OR(R): 0.6695
[28]
  OR: 0.6163
  OR(R): 0.6163
[29]
  OR: 0.5852
  OR(R): 0.5852
[30]
  OR: 1.5364
  OR(R): 1.5364
[31]
  OR: 0.1796
  OR(R): 0.1796
[32]
  OR: 0.1817
  OR(R): 0.1817
[33]
  OR: 0.2206
  OR(R): 0.2206
[34]
  OR: 0.2253
  OR(R): 0.2253
[35]
  OR: 0.1976
  OR(R): 0.1976
[36]
  OR: 0.2007
  OR(R): 0.2007
[37]
  OR: 0.5734
  OR(R): 0.5734
[38]
  OR: 1.5824
  OR(R): 1.5824
rs11925875 allele A vs G (ref)
  Meta-analysis OR: 0.66
[39]
  OR: 0.4343
  OR(R): 0.4343
[40]
  OR: 0.4237
  OR(R): 0.4237
[41]
  OR: 0.6564
  OR(R): 0.6564
[42]
  OR: 1.5794
  OR(R): 1.5794
[43]
  OR: 0.5759
  OR(R): 0.5759
[44]
  OR: 2.1926
  OR(R): 2.1926
[45]
  OR: 2.4795
  OR(R): 2.4795
[46]
  OR: 1.7403
  OR(R): 1.8042
[47]
  OR: 0.6442
  OR(R): 0.6442
[48]
  OR: 0.6667
  OR(R): 0.6667
[49]
  OR: 1.6268
  OR(R): 1.6268
[50]
  OR: 1.7055
  OR(R): 1.7055
[51]
  OR: 0.5645
  OR(R): 0.5645
[52]
  OR: 0.6919
  OR(R): 0.6919
[53]
  OR: 2.3413
  OR(R): 2.3413
[54]
  OR: 2.3135
  OR(R): 2.3135
[55]
  OR: 0.5884
  OR(R): 0.5884
[56]
  OR: 0.6857
  OR(R): 0.6857
[57]
  OR: 1.4208
  OR(R): 1.4208
[58]
  OR: 2.0445
  OR(R): 2.0445
[59]
  OR: 1.6401
  OR(R): 1.6401
rs12556591 allele G vs A (ref)
  Meta-analysis OR: 0.59
rs12657484, allele A1 G (non-ref), A2 A (ref), endpoint/model not given
  Meta-analysis OR: 1.49
[60]
  OR: 0.6104
  OR(R): 0.6104
[61]
  OR: 0.5662
  OR(R): 0.5662
[62]
  OR: 0.5982
  OR(R): 0.5982
rs13279522 allele G vs A (ref)
  Meta-analysis OR: 0.62
rs13314266 allele G vs A (ref)
  Meta-analysis OR: 0.51
rs13318232 allele G vs A (ref)
  Meta-analysis OR: 0.52
rs16861467, allele A1 G (non-ref), A2 A (ref), endpoint/model not given
  Meta-analysis OR: 0.49
rs17076974 allele A vs G (ref)
  Meta-analysis OR: 1.40
rs17546598 allele A vs G (ref)
  Meta-analysis OR: 1.71
rs17706237 allele G vs A (ref)
  Meta-analysis OR: 1.69
rs17716275, allele A1 A (non-ref), A2 G (ref), endpoint/model not given
  Meta-analysis OR: 2.03
rs72746987 allele A vs G (ref)
  Meta-analysis OR: 0.40
